PubChem BioAssay AID2060602 (Molecular Pharmacology Branch, DTP, NCI, 2025)

Test system: 648629-189-R-J1-PDC complex spheroids viability
Test: Anticancer human tumor 648629-189-R-J1-PDC patient-derived bladder carcinoma cell line growth inhibition [CLK]
Conditions: for IC50: curve of first compound; for viability, T/C: stronger effect = lower value
In short: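 Patient-derived tumor cells grown as complex spheroids with HUVEC endothelial cells and mesenchymal stem cells, treated with drug combinations. Concentrations descend in half-log steps from near clinical Cmax, or from 10 microM if Cmax unknown.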
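For viability, T/C in this document: drug exposure lasted seven days before viability readout; 100% = DMSO vehicle control wells.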

COc1ccc([C@@H](O)c2cc(-c3ncnc4cc(N5CCOCC5)ccc34)c(F)cc2Cl)nn1 + CNC(=O)c1ccc(Nc2nc(OC3CCCC3)c3c(-c4ccc5nc(C)oc5c4)c[nH]c3n2)c(OC)c1
IC50 (second compound 0.0316 µM): 9.76 µM
IC50 (second compound 0.1 µM): 7.74 µM
IC50 (second compound 0.316 µM): < 0.0316 µM
IC50 (second compound 1 µM): < 0.0316 µM
IC50 (second compound 3.16 µM): < 0.0316 µM
IC50 (second compound 10 µM): < 0.0316 µM
viability, T/C (second compound 0.0316 µM, first compound 0.0316 µM): 105%
viability, T/C (second compound 0.0316 µM, first compound 0.1 µM): 93%
viability, T/C (second compound 0.0316 µM, first compound 0.316 µM): 97%
viability, T/C (second compound 0.0316 µM, first compound 1 µM): 85.3%
viability, T/C (second compound 0.0316 µM, first compound 3.16 µM): 67.4%
viability, T/C (second compound 0.0316 µM, first compound 10 µM): 49.7%
viability, T/C (second compound 0.1 µM, first compound 0.0316 µM): 90.6%
viability, T/C (second compound 0.1 µM, first compound 0.1 µM): 89.3%
viability, T/C (second compound 0.1 µM, first compound 0.316 µM): 83.7%
viability, T/C (second compound 0.1 µM, first compound 1 µM): 82%
viability, T/C (second compound 0.1 µM, first compound 3.16 µM): 60.5%
viability, T/C (second compound 0.1 µM, first compound 10 µM): 47%
viability, T/C (second compound 0.316 µM, first compound 0.0316 µM): 30.8%
viability, T/C (second compound 0.316 µM, first compound 0.1 µM): 27%
viability, T/C (second compound 0.316 µM, first compound 0.316 µM): 26.8%
viability, T/C (second compound 0.316 µM, first compound 1 µM): 24.6%
viability, T/C (second compound 0.316 µM, first compound 3.16 µM): 22.4%
viability, T/C (second compound 0.316 µM, first compound 10 µM): 24.2%
viability, T/C (second compound 1 µM, first compound 0.0316 µM): 20.2%
viability, T/C (second compound 1 µM, first compound 0.1 µM): 22.2%
viability, T/C (second compound 1 µM, first compound 0.316 µM): 20.5%
viability, T/C (second compound 1 µM, first compound 1 µM): 17.5%
viability, T/C (second compound 1 µM, first compound 3.16 µM): 22.4%
viability, T/C (second compound 1 µM, first compound 10 µM): 16%
viability, T/C (second compound 3.16 µM, first compound 0.0316 µM): 21.3%
viability, T/C (second compound 3.16 µM, first compound 0.1 µM): 20.5%
viability, T/C (second compound 3.16 µM, first compound 0.316 µM): 20.4%
viability, T/C (second compound 3.16 µM, first compound 1 µM): 15%
viability, T/C (second compound 3.16 µM, first compound 3.16 µM): 19.2%
viability, T/C (second compound 3.16 µM, first compound 10 µM): 18.1%
viability, T/C (second compound 10 µM, first compound 0.0316 µM): 19.6%
viability, T/C (second compound 10 µM, first compound 0.1 µM): 17.1%
viability, T/C (second compound 10 µM, first compound 0.316 µM): 21.7%
viability, T/C (second compound 10 µM, first compound 1 µM): 20.1%
viability, T/C (second compound 10 µM, first compound 3.16 µM): 19.1%
viability, T/C (second compound 10 µM, first compound 10 µM): 15.7%
